Data as given in patent publication US6908942B2, “6-amino-2,2-dimethyl-3,4,6-trisubstituted benzopyran derivatives and their construction by parallel synthesis on solid-phase” (Korea Research Institute of Chemical Technology, priority 2002, dated 2005).

Tested on: lipid peroxidation induced by iron
Assay: Inhibitory effect on iron-induced lipid peroxidation in rat brain homogenate (MDA measurement, N-methyl-2-phenylindole, Bioxytech LPO-586 Kit)
Type: biochemical
Conditions: FeCl2 400 μM, 30 min at 37° C., decrease of MDA vs DMSO control, absorption at 586 nm
Experimental: The inhibitory effect of the present compounds on lipid peroxidation induced by iron was evaluated as follows:
Rat brain was homogenized in Krebs buffer (15 mM HEPES, 10 mM glucose, 140 mM NaCl, 3.6 mM KCl, 1.5 mM CaCl2, 1.4 mM KH2PO4 and 0.7 mM MgCl, pH 7.4) and centrifuged at 12,000 rpm to obtain the supernatant serving as a raw material of lipid. To the brain homogenates, FeCl^2 was added to give a final concentration of 400 μM and allowed to stand for 30 min at 37° C. for promoting oxidation. Each of the compounds to be tested was added to give a concentration of 12.5 μM and a control group was solely added with dimethylsulfoxide (DMSO).
When iron is added to brain homogenates, oxidation is promoted to increase the amount of malondialdehyde (MDA) as lipid peroxidation product. Therefore, in this Example, the level of lipid peroxidation was evaluated according to MDA measurement method. In general MDA measurement, the test sample is reacted with TBA (2-thiobarbituric acid) and the absorbance at 530 nm was measured. However, since such process includes a boiling step, it is unsuitable for dealing with test samples in large quantity. Therefore, in this Example, N-methyl-2-phenylindole was used as a color developing reagent in place of TBA so as to avoid boiling step. […] The inhibitory effect on lipid peroxidation of test compounds was evaluated by calculating the decreased level of MDA in percentage based on the amount of MDA in the control group. For the test compounds showing more than 80% inhibitory effect, the concentration-lipid peroxidation inhibition curves were plotted with reference to the decrease rate of MDA amount based on the amount of MDA in the control group and their IC50 values was calculated through least linear regression analysis.
In addition, the representative antioxidants commercialized such as Promethazine, Trolox, Probucol and N-propyl gallate were examined in terms of 50% inhibition concentration (IC50) according to the above procedure and the results are shown in Table 4.

Compound	IC50 [µM]
C=CCOC1C(OCc2ccccc2)c2cc(NC)ccc2OC1(C)C (stereo not shown) [Compound 5-79]	0.79
CCOC1c2cc(NCc3ccc(F)cc3)ccc2OC(C)(C)C1OCc1ccccc1 (stereo not shown) [Compound 5-465]	6.41
CNc1ccc2c(c1)C(OCCC1CCCCC1)C(OCc1ccc(F)cc1)C(C)(C)O2 (stereo not shown) [Compound 5-98]	5.3
COC1c2cc(NCc3ccc(F)cc3)ccc2OC(C)(C)C1OC(=O)CC(C)(C)C (stereo not shown) [Compound 5-1762]	1.8
CC(C)OC1c2cc(NCc3ccc(F)cc3)ccc2OC(C)(C)C1OCc1ccc2ccccc2c1 (stereo not shown) [Compound 5-490]	2.24
CCCCOC1c2cc(NC)ccc2OC(C)(C)C1OC(=O)c1ccc(C)cc1 (stereo not shown) [Compound 5-1516]	6.34
CC1(C)Oc2ccc(NCc3ccccc3)cc2C(OCc2ccccc2)C1OCc1cccc(Cl)c1 (stereo not shown) [Compound 5-295]	1.29
CC(C)(C)CC(=O)OC1C(OCc2ccccc2)c2cc(NCc3ccc(F)cc3)ccc2OC1(C)C (stereo not shown) [Compound 5-1802]	4.12
CNc1ccc2c(c1)C(OCCC1CCCCC1)C(OCc1ccccc1C)C(C)(C)O2 (stereo not shown) [Compound 5-101]	6.03
Cc1ccc(COC2C(OCc3ccccc3)c3cc(NCc4ccccc4)ccc3OC2(C)C)cc1 (stereo not shown) [Compound 5-296]	5.85
COC1c2cc(NCc3ccc(C)cc3)ccc2OC(C)(C)C1OCc1cccc(F)c1 (stereo not shown) [Compound 5-564]	4.33
Cc1ccccc1COC1C(OC(C)C)c2cc(NCc3ccc(F)cc3)ccc2OC1(C)C (stereo not shown) [Compound 5-485]	2.66
COC1c2cc(NCc3ccc(C)cc3)ccc2OC(C)(C)C1OC(=O)C=C(C)C (stereo not shown) [Compound 5-1834]	1.29
CCCOC(=O)c1cc(O)c(O)c(O)c1 [N-propyl gallate, reference compound]	25
CC1(C)Oc2ccc(NCc3ccccc3)cc2C(OCCc2ccccc2)C1OCc1ccccc1Cl (stereo not shown) [Compound 5-311]	1.19
COC1c2cc(NCc3ccc(C)cc3)ccc2OC(C)(C)C1OC(=O)c1ccc(C)cc1 (stereo not shown) [Compound 5-1836]	1.16
CNc1ccc2c(c1)C(OCc1ccccc1)C(OCc1ccc(C(C)(C)C)cc1)C(C)(C)O2 (stereo not shown) [Compound 5-67]	6.06
COC1C(OCc2ccccc2)c2cc(NCc3ccccc3)ccc2OC1(C)C (stereo not shown) [Compound 5-300]	1.36
CCOC1c2cc(NCc3ccc(F)cc3)ccc2OC(C)(C)C1OC (stereo not shown) [Compound 5-476]	1.35
CCNc1ccc2c(c1)C(OC)C(OC(=O)c1ccc(F)cc1)C(C)(C)O2 (stereo not shown) [Compound 5-1558]	3.37
COC1c2cc(NCc3ccc(C)cc3)ccc2OC(C)(C)C1OCc1ccc(F)cc1 (stereo not shown) [Compound 5-562]	6.47
CCOC1c2cc(NCc3ccc(F)cc3)ccc2OC(C)(C)C1OCc1ccc(F)cc1 (stereo not shown) [Compound 5-466]	1.2

Continued, values first:

IC50 [µM]	Compound
1.08	C#CCOC1C(OCc2ccccc2)c2cc(NC)ccc2OC1(C)C (stereo not shown) [Compound 5-80]
1.1	CC1(C)Oc2ccc(NCc3ccccc3)cc2C(OCCc2ccccc2)C1OCc1ccccc1Cl (stereo not shown) [Compound 5-310]
3.6	CNc1ccc2c(c1)C(OCc1ccccc1)C(OCc1ccc3ccccc3c1)C(C)(C)O2 (stereo not shown) [Compound 5-74]
5.27	C/C=C/COC1C(OCCc2ccccc2)c2cc(NCc3ccccc3)ccc2OC1(C)C (stereo not shown) [Compound 5-318]
7.39	CNc1ccc2c(c1)C(OCc1ccccc1)C(OCc1ccc(C)cc1)C(C)(C)O2 (stereo not shown) [Compound 5-72]
1.15	CNc1ccc2c(c1)C(OCc1ccccc1)C(OCc1ccccc1Cl)C(C)(C)O2 (stereo not shown) [Compound 5-70]
3.6	CCOC1c2cc(NCc3ccc(F)cc3)ccc2OC(C)(C)C1OCc1ccc(C(C)(C)C)cc1 (stereo not shown) [Compound 5-467]
3.04	CNc1ccc2c(c1)C(OC)C(OC(=O)c1ccco1)C(C)(C)O2 (stereo not shown) [Compound 5-1490]
4.6	CC1(C)Oc2ccc(NCc3ccc(F)cc3)cc2C(OCc2ccccc2)C1OCc1cccc(Cl)c1 (stereo not shown) [Compound 5-519]
2.71	COC1c2cc(NCc3ccc(C)cc3)ccc2OC(C)(C)C1OC(C)=O (stereo not shown) [Compound 5-1831]
3.1	CCCCOC1c2cc(NC)ccc2OC(C)(C)C1OC(=O)c1ccco1 (stereo not shown) [Compound 5-1520]
2.05	CCNc1ccc2c(c1)C(OCC)C(OC(=O)C1CCCCC1)C(C)(C)O2 (stereo not shown) [Compound 5-1563]
3.02	CC1(C)Oc2ccc(NCc3ccccc3)cc2C(OCc2ccccc2)C1OCc1ccc(F)cc1 (stereo not shown) [Compound 5-290]
3.41	CCNc1ccc2c(c1)C(OCC)C(OC(=O)c1cccs1)C(C)(C)O2 (stereo not shown) [Compound 5-1569]
2.39	CC1(C)Oc2ccc(NCc3ccc(F)cc3)cc2C(OCc2ccccc2)C1OCc1ccc(F)cc1 (stereo not shown) [Compound 5-514]
4.75	CC1(C)Oc2ccc(NCc3ccccc3)cc2C(OCCc2ccccc2)C1OCc1cccc(F)c1 (stereo not shown) [Compound 5-308]
2.73	COC1c2cc(NCc3ccc(F)cc3)ccc2OC(C)(C)C1OC(=O)c1ccc(F)cc1 (stereo not shown) [Compound 5-1768]
0.98	CCCCOC1c2cc(NC)ccc2OC(C)(C)C1OCc1cccc(F)c1 (stereo not shown) [Compound 5-52]
3.43	CC1(C)Oc2ccc(NCc3ccccc3)cc2C(OCCc2ccccc2)C1OCc1cc(C(F)F)cc(C(F)(F)F)c1 (stereo not shown) [Compound 5-315]
3.56	CCCCOC1c2cc(NCc3ccc(F)cc3)ccc2OC(C)(C)C1OC(=O)c1ccc(OC)cc1 (stereo not shown) [Compound 5-1797]
4.15	CCOC1c2cc(NCc3ccc(F)cc3)ccc2OC(C)(C)C1OCc1ccccc1Cl (stereo not shown) [Compound 5-470]
3.33	CNc1ccc2c(c1)C(OC)C(OC(=O)c1cccs1)C(C)(C)O2 (stereo not shown) [Compound 5-1489]
1.32	CC1(C)Oc2ccc(NCc3ccccc3)cc2C(OCc2ccccc2)C1OCc1ccccc1 (stereo not shown) [Compound 5-289]
0.91	CC(C)OC1c2cc(NCc3ccc(F)cc3)ccc2OC(C)(C)C1OCc1ccccc1Cl (stereo not shown) [Compound 5-486]
